The results in this text go back to patent US9242970B2 (ACTELION PHARMACEUTICALS LTD., priority 2010, dated 2016).

The structures appear in SMILES notation. Like-named read-outs stand apart in the source and are kept apart here.

Experiment [1] has as its target human orexin-1 receptor (Homo sapiens (Human), UniProt O43613). The experiment in a line: In vitro assay: intracellular calcium measurements (FLIPR), antagonistic activity. Particulars: CHO cells, 3 nM orexin-A, marked values are geometric means of n = 2-6, read-out: IC50 OX1. It is filed as cell-based.
Experiment [2] has as its target human orexin-2 receptor (Homo sapiens (Human), UniProt O43614). The description is as above. It is filed as cell-based. To be noted: CHO cells, 3 nM orexin-A, marked values are geometric means of n = 2-6, read-out: IC50 OX2.
The mark [3] stands for this setting: compound incubation time of 10 min.

human orexin-2 receptor, sequence (O43614 whole entry): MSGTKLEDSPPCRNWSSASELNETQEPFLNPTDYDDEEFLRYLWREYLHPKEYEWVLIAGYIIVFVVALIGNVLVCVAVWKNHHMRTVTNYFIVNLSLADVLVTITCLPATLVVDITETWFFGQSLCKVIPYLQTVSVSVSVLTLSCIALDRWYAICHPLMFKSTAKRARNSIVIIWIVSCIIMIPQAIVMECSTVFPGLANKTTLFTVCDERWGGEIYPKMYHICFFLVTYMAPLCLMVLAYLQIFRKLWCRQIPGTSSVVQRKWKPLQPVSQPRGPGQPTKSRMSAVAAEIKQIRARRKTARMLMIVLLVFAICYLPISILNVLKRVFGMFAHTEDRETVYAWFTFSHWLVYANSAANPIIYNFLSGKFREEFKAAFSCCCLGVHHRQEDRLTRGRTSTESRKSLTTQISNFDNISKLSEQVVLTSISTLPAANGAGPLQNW
human orexin-1 receptor, sequence (O43613 whole entry): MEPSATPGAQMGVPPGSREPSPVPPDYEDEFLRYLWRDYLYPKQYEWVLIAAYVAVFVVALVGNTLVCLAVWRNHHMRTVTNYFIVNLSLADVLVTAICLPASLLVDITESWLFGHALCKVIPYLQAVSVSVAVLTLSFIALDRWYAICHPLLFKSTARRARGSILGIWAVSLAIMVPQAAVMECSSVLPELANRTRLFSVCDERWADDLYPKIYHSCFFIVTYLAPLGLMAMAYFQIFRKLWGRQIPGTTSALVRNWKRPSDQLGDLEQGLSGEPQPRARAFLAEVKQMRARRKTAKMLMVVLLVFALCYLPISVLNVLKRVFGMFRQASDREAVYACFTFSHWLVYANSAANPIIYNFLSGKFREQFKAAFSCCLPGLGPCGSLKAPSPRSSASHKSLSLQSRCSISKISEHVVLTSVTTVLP

`COc1cccc(OC)c1C1CCC(=O)N1Cc1cccc(-c2csc(C)n2)c1` (centres unmarked) [Example 125, 5-(2,6-dimethoxyphenyl)-1-(3-(2-methylthiazol-4-yl)benzyl)pyrrolidin-2-one]: the half-inhibitory concentration (IC50) in experiment [1] (compound incubation 120 min) turned out to be 11 nM; in experiment [2] (compound incubation 120 min), 82 nM.

In the case of `COc1cccc(OC)c1C1CCC(=O)N1Cc1cccc(-n2cccn2)c1` (centres unmarked) [Example 126, 1-(3-(1H-pyrazol-1-yl)benzyl)-5-(2,6-dimethoxyphenyl)pyrrolidin-2-one], the IC50 in experiment [1] (compound incubation 120 min) came out at 165 nM; in experiment [2] (compound incubation 120 min), 839 nM.

As to `COc1cccc(OC)c1C1CCC(=O)N1Cc1ccc2oc3ccccc3c2c1` (centres unmarked) [Example 127, 1-(dibenzo[b,d]furan-2-ylmethyl)-5-(2,6-dimethoxyphenyl)pyrrolidin-2-one], the IC50 came to 14 nM in experiment [1] (compound incubation 120 min) and 20 nM in experiment [2] (compound incubation 120 min).

Consider `COc1cccc(OC)c1C1CCC(=O)N1Cc1nc2ccccc2s1` (centres unmarked) [Example 128, 1-(benzo[d]thiazol-2-ylmethyl)-5-(2,6-dimethoxyphenyl)pyrrolidin-2-one], for which the IC50 in experiment [1] (compound incubation 120 min) turned out to be 3880 nM; in experiment [2] (compound incubation 120 min), 2050 nM.

Turning to `COc1cccc(OC)c1C1CCC(=O)N1Cc1cccc(N2CCCCC2)c1` (centres unmarked) [Example 129, 5-(2,6-dimethoxyphenyl)-1-(3-(piperidin-1-yl)benzyl)pyrrolidin-2-one], the half-inhibitory concentration (IC50) was determined as 198 nM in experiment [1] (compound incubation 120 min) and 858 nM in experiment [2] (compound incubation 120 min).

As for `COc1cccc(OC)c1C1CCC(=O)N1Cc1cccc(N2CCCCC2)n1` (centres unmarked) [Example 130, 5-(2,6-dimethoxyphenyl)-1-((6-(piperidin-1-yl)pyridin-2-yl)methyl)pyrrolidin-2-one], the concentration for half-maximal inhibition (IC50) in experiment [1] (compound incubation 120 min) is 636 nM; in experiment [2] (compound incubation 120 min) it was 690 nM.

As for `COc1cccc(OC)c1C1CC(C)C(=O)N1Cc1ccc2ccccc2c1` (centres unmarked) [Example 131, 5-(2,6-dimethoxyphenyl)-3-methyl-1-(naphthalen-2-ylmethyl)pyrrolidin-2-one], the half-maximal inhibitory concentration (IC50) in experiment [1] (compound incubation 120 min) is 27 nM; in experiment [2] (compound incubation 120 min), 455 nM.

As for `COc1cccc(OC)c1C1CC(C)C(=O)N1Cc1cccc(-c2nccs2)c1` (centres unmarked) [Example 132, 5-(2,6-dimethoxyphenyl)-3-methyl-1-(3-(thiazol-2-yl)benzyl)pyrrolidin-2-one], the half-inhibitory concentration (IC50) was found to be 4 nM in experiment [1] (compound incubation 120 min) and 44 nM in experiment [2] (compound incubation 120 min).

Take `COc1cccc(OC)c1C1CC(C)C(=O)N1Cc1cccc(-c2csc(C)n2)c1` (centres unmarked) [Example 133, 5-(2,6-dimethoxyphenyl)-3-methyl-1-(3-(2-methylthiazol-4-yl)benzyl)pyrrolidin-2-one]: the IC50 in experiment [1] (compound incubation 120 min) amounted to 2 nM; in experiment [2] (compound incubation 120 min), 24 nM.

In the case of `COc1cccc(OC)c1C1CC(C)C(=O)N1Cc1cccc(N2CCCCC2)c1` (centres unmarked) [Example 134, 5-(2,6-dimethoxyphenyl)-3-methyl-1-(3-(piperidin-1-yl)benzyl)pyrrolidin-2-one], the values for the 50% inhibitory concentration (IC50) in experiment [1] (compound incubation 120 min) and in experiment [2] (compound incubation 120 min) were 37 nM and 157 nM, respectively.

`COc1cccc(OC)c1C1CC(C)C(=O)N1Cc1cccc(-n2cccn2)c1` (centres unmarked) [Example 135, 1-(3-(1H-pyrazol-1-yl)benzyl)-5-(2,6-dimethoxyphenyl)-3-methylpyrrolidin-2-one]: the IC50 in experiment [1] (compound incubation 120 min) is 23 nM; in experiment [2] (compound incubation 120 min), 264 nM.

As to `COc1cccc(OC)c1C1CCC(=O)N1Cc1cccc(-c2noc(C)n2)c1` (centres unmarked) [Example 136, 5-(2,6-dimethoxyphenyl)-1-(3-(5-methyl-1,2,4-oxadiazol-3-yl)benzyl)pyrrolidin-2-one], the IC50 in experiment [1] (compound incubation 120 min) worked out at 219 nM; in experiment [2] (compound incubation 120 min) it was 547 nM.

Take `COc1cccc(OC)c1C1CC(C)C(=O)N1Cc1ccc2oc3ccccc3c2c1` (centres unmarked) [Example 137, 1-(dibenzo[b,d]furan-2-ylmethyl)-5-(2,6-dimethoxyphenyl)-3-methylpyrrolidin-2-one]: the IC50 stood at 2 nM in experiment [1] (compound incubation 120 min) and 5 nM in experiment [2] (compound incubation 120 min).

On to `COc1cccc(OC)c1C1CC(C)C(=O)N1Cc1cccc(-c2ccccc2)n1` (centres unmarked) [Example 138, 5-(2,6-dimethoxyphenyl)-3-methyl-1-((6-phenylpyridin-2-yl)methyl)pyrrolidin-2-one], for which the IC50 in experiment [1] (compound incubation 120 min) worked out at 32 nM; in experiment [2] (compound incubation 120 min) it was 29 nM.

`COc1cccc(OC)c1C1CC(C)C(=O)N1Cc1ccnc(-c2ccccc2)c1` (centres unmarked) [Example 139, 5-(2,6-dimethoxyphenyl)-3-methyl-1-((2-phenylpyridin-4-yl)methyl)pyrrolidin-2-one]: the IC50 in experiment [1] (compound incubation 120 min) stood at 35 nM; in experiment [2] (compound incubation 120 min), 172 nM.

Turning to `COc1cccc(OC)c1C1CC(C)C(=O)N1Cc1cccc(-c2ccccn2)c1` (centres unmarked) [Example 140, 5-(2,6-dimethoxyphenyl)-3-methyl-1-(3-(pyridin-2-yl)benzyl)pyrrolidin-2-one], the half-inhibitory concentration (IC50) is 10 nM in experiment [1] (compound incubation 120 min) and 73 nM in experiment [2] (compound incubation 120 min).

Take `COc1cccc(OC)c1C1CC(C)C(=O)N1Cc1cccc(-c2cccnc2)c1` (centres unmarked) [Example 141, 5-(2,6-dimethoxyphenyl)-3-methyl-1-(3-(pyridin-3-yl)benzyl)pyrrolidin-2-one]: the IC50 in experiment [1] (compound incubation 120 min) stood at 35 nM; in experiment [2] (compound incubation 120 min), 28 nM.

As for `COc1cccc(OC)c1C1CC(C)C(=O)N1Cc1cccc(-c2ncccn2)c1` (centres unmarked) [Example 142, 5-(2,6-dimethoxyphenyl)-3-methyl-1-(3-(pyrimidin-2-yl)benzyl)pyrrolidin-2-one], the values for the IC50 in experiment [1] (compound incubation 120 min) and in experiment [2] (compound incubation 120 min) were 11 nM and 40 nM, respectively.

Turning to `COc1cccc(OC)c1C1CC(C)C(=O)N1Cc1cccc(-c2noc(C)n2)c1` (centres unmarked) [Example 143, 5-(2,6-dimethoxyphenyl)-3-methyl-1-(3-(5-methyl-1,2,4-oxadiazol-3-yl)benzyl)pyrrolidin-2-one], the results for the IC50 in experiment [1] (compound incubation 120 min) and in experiment [2] (compound incubation 120 min) were 27 nM and 46 nM, respectively.

As to `COc1cccc(OC)c1C1CC(C)C(=O)N1Cc1cnn(-c2ccccc2)c1` (centres unmarked) [Example 144, 5-(2,6-dimethoxyphenyl)-3-methyl-1-((1-phenyl-1H-pyrazol-4-yl)methyl)pyrrolidin-2-one], the half-maximal inhibitory concentration (IC50) turned out to be 223 nM in experiment [1] (compound incubation 120 min) and 318 nM in experiment [2] (compound incubation 120 min).

For the compound `COc1cccc(OC)c1C1CC(C)C(=O)N1Cc1csc(-c2ccccc2)n1` (centres unmarked) [Example 145, 5-(2,6-dimethoxyphenyl)-3-methyl-1-((2-phenylthiazol-4-yl)methyl)pyrrolidin-2-one], the IC50 in experiment [1] (compound incubation 120 min) was found to be 28 nM; in experiment [2] (compound incubation 120 min) it was 54 nM.

As for `COc1cccc(OC)c1C1CC(C)C(=O)N1Cc1cccc(-c2ccccn2)c1F` (centres unmarked) [Example 146, 5-(2,6-dimethoxyphenyl)-1-(2-fluoro-3-(pyridin-2-yl)benzyl)-3-methylpyrrolidin-2-one], the figures for the half-inhibitory concentration (IC50) in experiment [1] (compound incubation 120 min) and in experiment [2] (compound incubation 120 min) were 39 nM and 230 nM, respectively.

As to `COc1cccc(OC)c1C1CC(C)C(=O)N1Cc1cccc(-c2cncs2)c1` (centres unmarked) [Example 147, 5-(2,6-dimethoxyphenyl)-3-methyl-1-(3-(thiazol-5-yl)benzyl)pyrrolidin-2-one], the IC50 in experiment [1] (compound incubation 120 min) came to 20 nM; in experiment [2] (compound incubation 120 min), 114 nM.

`COc1cccc(OC)c1C1CC(C)C(=O)N1Cc1cccc(-c2ncc(C)s2)c1` (centres unmarked) [Example 148, 5-(2,6-dimethoxyphenyl)-3-methyl-1-(3-(5-methylthiazol-2-yl)benzyl)pyrrolidin-2-one]: the IC50 in experiment [1] (compound incubation 120 min) stood at 3 nM; in experiment [2] (compound incubation 120 min) it was 21 nM.

For `COc1cccc(OC)c1C1CC(C)C(=O)N1Cc1cccc(-n2nccn2)c1` (centres unmarked) [Example 149, 1-(3-(2H-1,2,3-triazol-2-yl)benzyl)-5-(2,6-dimethoxyphenyl)-3-methylpyrrolidin-2-one], the 50% inhibitory concentration (IC50) was 6 nM in experiment [1] (compound incubation 120 min) and 77 nM in experiment [2] (compound incubation 120 min).

With `COc1cccc(OC)c1C1CC(C)C(=O)N1Cc1cccc(-c2cscn2)c1` (centres unmarked) [Example 150, 5-(2,6-dimethoxyphenyl)-3-methyl-1-(3-(thiazol-4-yl)benzyl)pyrrolidin-2-one], the 50% inhibitory concentration (IC50) in experiment [1] (compound incubation 120 min) amounted to 7 nM; in experiment [2] (compound incubation 120 min), 47 nM.

As to `COc1cccc(OC)c1C1CC(C)C(=O)N1Cc1ccc2nc(C)sc2c1` (centres unmarked) [Example 151, 5-(2,6-dimethoxyphenyl)-3-methyl-1-((2-methylbenzo[d]thiazol-6-yl)methyl)pyrrolidin-2-one], the IC50 in experiment [1] (compound incubation 120 min) turned out to be 125 nM; in experiment [2] (compound incubation 120 min) it was 703 nM.

With `COc1cccc(OC)c1C1CC(C)C(=O)N1Cc1cc(Cl)cc(-c2ccccn2)c1` (centres unmarked) [Example 152, 1-(3-chloro-5-(pyridin-2-yl)benzyl)-5-(2,6-dimethoxyphenyl)-3-methylpyrrolidin-2-one], the IC50 in experiment [1] (compound incubation 120 min) stood at 74 nM; in experiment [2] (compound incubation 120 min), 270 nM.

As to `COc1cccc(OC)c1C1CC(C)C(=O)N1Cc1ccc(F)c(-c2ccccn2)c1` (centres unmarked) [Example 153, 5-(2,6-dimethoxyphenyl)-1-(4-fluoro-3-(pyridin-2-yl)benzyl)-3-methylpyrrolidin-2-one], the results for the concentration for half-maximal inhibition (IC50) in experiment [1] (compound incubation 120 min) and in experiment [2] (compound incubation 120 min) were 8 nM and 122 nM, respectively.

Turning to `COc1cccc(OC)c1C1CC(C)C(=O)N1Cc1ccnc(-n2cccn2)c1` (centres unmarked) [Example 154, 1-((2-(1H-pyrazol-1-yl)pyridin-4-yl)methyl)-5-(2,6-dimethoxyphenyl)-3-methylpyrrolidin-2-one], the IC50 stood at 10 nM in experiment [1] (compound incubation 120 min) and 204 nM in experiment [2] (compound incubation 120 min).

On to `COc1cccc(OC)c1C1CC(C)C(=O)N1Cc1cccc(-n2cccn2)n1` (centres unmarked) [Example 155, 1-((6-(1H-pyrazol-1-yl)pyridin-2-yl)methyl)-5-(2,6-dimethoxyphenyl)-3-methylpyrrolidin-2-one], for which the IC50 came to 134 nM in experiment [1] (compound incubation 120 min) and 1180 nM in experiment [2] (compound incubation 120 min).

As to `COc1cccc(OC)c1C1CCCC(=O)N1Cc1ccc(OC(F)(F)F)cc1` (centres unmarked) [Example 156, 6-(2,6-dimethoxyphenyl)-1-(4-(trifluoromethoxy)benzyl)piperidin-2-one], the values for the 50% inhibitory concentration (IC50) in experiment [1] (setting [3]) and in experiment [2] (setting [3]) were 259 nM and 22 nM, respectively.

Consider `COc1cccc(OC)c1C1CCCC(=O)N1Cc1ccc(F)cc1` (centres unmarked) [Example 157, 6-(2,6-dimethoxyphenyl)-1-(4-fluorobenzyl)piperidin-2-one], for which the figures for the IC50 in experiment [1] (setting [3]) and in experiment [2] (setting [3]) were 1460 nM and 231 nM, respectively.

As for `COc1cccc(OC)c1C1CCCC(=O)N1Cc1ccc(Cl)cc1` (centres unmarked) [Example 158, 1-(4-chlorobenzyl)-6-(2,6-dimethoxyphenyl)piperidin-2-one], the IC50 was 702 nM in experiment [1] (setting [3]) and 154 nM in experiment [2] (setting [3]).
